Measured values: ChEMBL document CHEMBL1157646, “Melanogenesis inhibitors from the desert plant Anastatica hierochuntica in B16 melanoma cells” (Bioorg Med Chem, 2010)
Active and inactive are the calls of the source. No cut-off for these calls is given here.

Assays:
[1] = Inhibition of theophylline-stimulated melanogenesis in mouse B16-4A5 cells at 300 uM after 72 hrs; format: functional; details: B16-4A5, 72 h
[2] = Inhibition of theophylline-stimulated melanogenesis in mouse B16-4A5 cells at 100 uM after 72 hrs; format: functional; details: B16-4A5, 72 h
[3] = Inhibition of theophylline-stimulated melanogenesis in mouse B16-4A5 cells at 1000 uM after 72 hrs; format: functional; details: B16-4A5, 72 h
[4] = cells; details: Mus musculus, B16-4A5, 72 h, read-out: INH
Description: Inhibition of theophylline-stimulated melanogenesis in mouse B16-4A5 cells at 30 uM after 72 hrs

[5] = cells; details: Mus musculus, B16-4A5, 72 h, read-out: INH; remark: listed apart in the source
Description: Inhibition of theophylline-stimulated melanogenesis in mouse B16-4A5 cells at 10 uM after 72 hrs

[6] = Toxicity in mouse B16-4A5 cells assessed as inhibition of cell proliferation at 30 uM in presence of 1 mM theophylline after 72 hrs by WST8 dye reduction assay; format: cell-based
[7] = biological target: T1, Tyrosinase (Agaricus bisporus) (UniProt O42713); assay: Inhibition of mushroom tyrosinase assessed as inhibition of melanin production from dopachrome by autoxidation at 100 uM
T1 sequence (whole entry): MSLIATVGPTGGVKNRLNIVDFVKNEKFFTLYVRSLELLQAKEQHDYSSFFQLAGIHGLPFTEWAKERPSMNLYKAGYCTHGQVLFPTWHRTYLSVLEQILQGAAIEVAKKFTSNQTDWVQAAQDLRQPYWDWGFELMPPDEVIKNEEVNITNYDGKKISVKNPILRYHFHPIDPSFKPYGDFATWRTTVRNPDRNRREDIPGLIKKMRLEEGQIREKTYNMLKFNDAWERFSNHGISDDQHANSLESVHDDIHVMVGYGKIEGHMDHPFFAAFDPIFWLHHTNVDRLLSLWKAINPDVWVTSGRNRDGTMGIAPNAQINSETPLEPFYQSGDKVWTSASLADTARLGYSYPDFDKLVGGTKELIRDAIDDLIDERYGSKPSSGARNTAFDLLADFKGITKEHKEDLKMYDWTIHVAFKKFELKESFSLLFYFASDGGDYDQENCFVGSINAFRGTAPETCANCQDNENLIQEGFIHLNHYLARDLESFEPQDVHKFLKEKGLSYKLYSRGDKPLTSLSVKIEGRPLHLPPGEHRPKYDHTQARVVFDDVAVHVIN

[8] = cells; details: Mus musculus, B16-4A5, 72 h, read-out: INH; remark: listed apart in the source
Description: Inhibition of theophylline-stimulated melanogenesis in mouse B16-4A5 cells at 3 uM after 72 hrs

[9] = cells; details: Mus musculus, B16-4A5, 72 h, read-out: INH; remark: listed apart in the source
Description: Inhibition of theophylline-stimulated melanogenesis in mouse B16-4A5 cells at 1 uM after 72 hrs

[10] = Toxicity in mouse B16-4A5 cells assessed as inhibition of cell proliferation at 1 uM in presence of 1 mM theophylline after 72 hrs by WST8 dye reduction assay; format: cell-based
[11] = Toxicity in mouse B16-4A5 cells assessed as inhibition of cell proliferation at 3 uM in presence of 1 mM theophylline after 72 hrs by WST8 dye reduction assay; format: cell-based
[12] = Toxicity in mouse B16-4A5 cells assessed as inhibition of cell proliferation at 10 uM in presence of 1 mM theophylline after 72 hrs by WST8 dye reduction assay; format: cell-based
[13] = biological target: T1, Tyrosinase (Agaricus bisporus); assay: Inhibition of mushroom tyrosinase at 1 uM
[14] = biological target: T1, Tyrosinase (Agaricus bisporus); assay: Inhibition of mushroom tyrosinase at 3 uM
[15] = biological target: T2, Tyrosinase (Agaricus bisporus, UniProt O42713); assay: Inhibition of mushroom tyrosinase
T2 sequence (O42713 whole entry): T1 sequence (whole entry)

[16] = Toxicity in mouse B16-4A5 cells assessed as inhibition of cell proliferation in presence of 1 mM theophylline after 72 hrs by WST8 dye reduction assay; format: cell-based
[17] = Effect on tyrosinase mRNA expression in mouse B16-4A5 cells assessed as tyrosinase mRNA/beta-actin mRNA expression ratio at 3 uM in presence of 1 mM theophylline after 72 hrs by RT-PCR; format: functional
[18] = Effect on tyrosinase mRNA expression in mouse B16-4A5 cells assessed as tyrosinase mRNA/beta-actin mRNA expression ratio at 1 uM in presence of 1 mM theophylline after 72 hrs by RT-PCR; format: functional
[19] = Effect on tyrosinase mRNA expression in mouse B16-4A5 cells assessed as tyrosinase mRNA/beta-actin mRNA expression ratio at 10 uM in presence of 1 mM theophylline after 72 hrs by RT-PCR; format: functional
[20] = Effect on tyrosinase mRNA expression in mouse B16-4A5 cells assessed as tyrosinase mRNA/beta-actin mRNA expression ratio at 30 uM in presence of 1 mM theophylline after 72 hrs by RT-PCR; format: functional
[21] = Effect on TRP1 mRNA expression in mouse B16-4A5 cells assessed as TRP1 mRNA/beta-actin mRNA expression ratio at 1 uM in presence of 1 mM theophylline after 72 hrs by RT-PCR; format: functional
[22] = Effect on TRP1 mRNA expression in mouse B16-4A5 cells assessed as TRP1 mRNA/beta-actin mRNA expression ratio at 3 uM in presence of 1 mM theophylline after 72 hrs by RT-PCR; format: functional
[23] = Effect on TRP1 mRNA expression in mouse B16-4A5 cells assessed as TRP1 mRNA/beta-actin mRNA expression ratio at 10 uM in presence of 1 mM theophylline after 72 hrs by RT-PCR; format: functional
[24] = Effect on TRP1 mRNA expression in mouse B16-4A5 cells assessed as TRP1 mRNA/beta-actin mRNA expression ratio at 30 uM in presence of 1 mM theophylline after 72 hrs by RT-PCR; format: functional
[25] = Effect on TRP2 mRNA expression in mouse B16-4A5 cells assessed as TRP2 mRNA/beta-actin mRNA expression ratio at 1 uM in presence of 1 mM theophylline after 72 hrs by RT-PCR; format: functional
[26] = Effect on TRP2 mRNA expression in mouse B16-4A5 cells assessed as TRP2 mRNA/beta-actin mRNA expression ratio at 3 uM in presence of 1 mM theophylline after 72 hrs by RT-PCR; format: functional
[27] = Effect on TRP2 mRNA expression in mouse B16-4A5 cells assessed as TRP2 mRNA/beta-actin mRNA expression ratio at 10 uM in presence of 1 mM theophylline after 72 hrs by RT-PCR; format: functional
[28] = Effect on TRP2 mRNA expression in mouse B16-4A5 cells assessed as TRP2 mRNA/beta-actin mRNA expression ratio at 30 uM in presence of 1 mM theophylline after 72 hrs by RT-PCR; format: functional
[29] = biological target: T3, Mitogen-activated protein kinase 1 and 3 (ERK2 and ERK1) (Mus musculus) (UniProt P63085+Q63844); assay: Inhibition of ERK1/2 phosphorylation in mouse B16-4A5 cells at 100 uM in presence of 1 mM theophylline after 72 hrs by immunoblot; format: cell-based
[30] = biological target: T3, Mitogen-activated protein kinase 1 and 3 (ERK2 and ERK1) (Mus musculus); assay: Inhibition of ERK1/2 phosphorylation in mouse B16-4A5 cells at 10 to 30 uM in presence of 1 mM theophylline after 72 hrs by immunoblot; format: cell-based

T3 sequence (P63085 whole entry, looked up): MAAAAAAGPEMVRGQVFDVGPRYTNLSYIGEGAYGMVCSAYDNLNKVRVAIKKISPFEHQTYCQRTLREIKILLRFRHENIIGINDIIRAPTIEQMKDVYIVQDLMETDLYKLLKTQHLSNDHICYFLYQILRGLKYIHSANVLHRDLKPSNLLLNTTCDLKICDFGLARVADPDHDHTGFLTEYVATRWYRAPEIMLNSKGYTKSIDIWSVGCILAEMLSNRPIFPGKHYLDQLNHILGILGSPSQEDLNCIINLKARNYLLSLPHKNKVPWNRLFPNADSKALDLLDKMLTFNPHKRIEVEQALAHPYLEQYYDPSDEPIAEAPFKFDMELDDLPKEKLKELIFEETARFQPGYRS
T3 sequence (Q63844 whole entry, looked up): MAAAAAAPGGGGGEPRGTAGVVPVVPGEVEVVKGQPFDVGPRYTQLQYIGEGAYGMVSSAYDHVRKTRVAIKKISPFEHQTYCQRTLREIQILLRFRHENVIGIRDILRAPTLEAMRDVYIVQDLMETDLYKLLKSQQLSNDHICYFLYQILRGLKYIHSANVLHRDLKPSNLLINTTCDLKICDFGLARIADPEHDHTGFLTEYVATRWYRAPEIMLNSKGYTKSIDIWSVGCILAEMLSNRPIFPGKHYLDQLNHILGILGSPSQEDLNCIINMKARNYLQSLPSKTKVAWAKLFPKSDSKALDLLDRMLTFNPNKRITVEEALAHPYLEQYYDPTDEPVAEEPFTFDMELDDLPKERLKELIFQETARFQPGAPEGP

OC[C@H]1O[C@@H](Oc2ccc(O)cc2)[C@H](O)[C@@H](O)[C@@H]1O [ARBUTIN]
inhibition at 300 µM [1]: 61.5% | inhibition at 100 µM [2]: 38.1% | inhibition at 1000 µM [3]: 83.7% | inhibition at 30 µM [4]: 20.4% | inhibition at 10 µM [5]: 10.6%

O=C1C[C@@H](c2ccc(O)c(O)c2)Oc2cc(O)cc(O)c21 [ERIODICTYOL]
inhibition at 100 µM [2]: 70.5% | inhibition at 72 h, 30 µM [6]: < 8.8% | inhibition [7]: inactive | inhibition at 30 µM [4]: 46.3% | inhibition at 10 µM [5]: 32.3% | inhibition at 3 µM [8]: 10.5% | inhibition at 1 µM [9]: 6.5%

O=c1c(O)c(-c2ccc(O)c(O)c2)oc2cc(O)cc(O)c12 [QUERCETIN]
inhibition at 72 h, 1 µM [10]: -8.8% | inhibition at 72 h, 3 µM [11]: -7.7% | inhibition at 72 h, 10 µM [12]: -8.6% | inhibition at 72 h, 30 µM [6]: 11.9% | inhibition [13]: 3.5% | inhibition [14]: 4.8% | IC50 [15]: 31 µM | inhibition [7]: inactive | inhibition at 30 µM [4]: 72.5% | inhibition at 10 µM [5]: 34.3% | inhibition at 3 µM [8]: 17.1% | inhibition at 1 µM [9]: 13.9%

COc1cc([C@H]2Oc3cc([C@H]4Oc5cc(O)cc(O)c5C(=O)[C@@H]4O)ccc3O[C@@H]2CO)ccc1O [SILYBIN A]
inhibition at 72 h, 1 µM [10]: -5.7% | inhibition at 72 h, 3 µM [11]: -10.7% | inhibition at 72 h, 10 µM [12]: 7.5% | inhibition at 72 h, 30 µM [6]: 33.8% | IC50 at 72 h [16]: > 100 µM | inhibition [13]: 8.4% | inhibition [14]: 10.3% | Ratio [17]: 1.12 | Ratio [18]: 0.92 | Ratio [19]: 1.93 | Ratio [20]: 2.11 | Ratio [21]: 0.79 | Ratio [22]: 0.89 | Ratio [23]: 1.6 | Ratio [24]: 1.07 | Ratio [25]: 0.95 | Ratio [26]: 1 | Ratio [27]: 2 | Ratio [28]: 1.6 | inhibition [29]: Active | inhibition [7]: inactive | inhibition at 30 µM [4]: 64.7% | inhibition at 10 µM [5]: 24.4% | inhibition at 3 µM [8]: 18.8% | inhibition at 1 µM [9]: 9.2%

COc1cc([C@@H]2Oc3cc([C@H]4Oc5cc(O)cc(O)c5C(=O)[C@@H]4O)ccc3O[C@H]2CO)ccc1O [SILYBIN B]
inhibition at 72 h, 1 µM [10]: -2% | inhibition at 72 h, 3 µM [11]: -1.4% | inhibition at 72 h, 10 µM [12]: 11.8% | inhibition at 72 h, 30 µM [6]: 44.4% | IC50 at 72 h [16]: > 100 µM | inhibition [13]: 5.7% | inhibition [14]: 8.4% | Ratio [17]: 0.95 | Ratio [18]: 0.89 | Ratio [19]: 1.27 | Ratio [20]: 0.59 | Ratio [21]: 0.88 | Ratio [22]: 1.12 | Ratio [23]: 1.35 | Ratio [24]: 0.73 | Ratio [25]: 0.78 | Ratio [26]: 1.31 | Ratio [27]: 1.69 | Ratio [28]: 1.03 | inhibition [30]: Active | inhibition at 30 µM [4]: 33% | inhibition at 10 µM [5]: 10.2% | inhibition at 3 µM [8]: 3% | inhibition at 1 µM [9]: -0.2%
